Assay results reported in BindingDB's records for doi:10.1016/j.ejmech.2016.01.046 (Italian Institute of Technology, 2016).

Biological target: T1, N-acylethanolamine-hydrolyzing acid amidase (Homo sapiens, UniProt Q02083)
T1 sequence (Q02083 whole entry): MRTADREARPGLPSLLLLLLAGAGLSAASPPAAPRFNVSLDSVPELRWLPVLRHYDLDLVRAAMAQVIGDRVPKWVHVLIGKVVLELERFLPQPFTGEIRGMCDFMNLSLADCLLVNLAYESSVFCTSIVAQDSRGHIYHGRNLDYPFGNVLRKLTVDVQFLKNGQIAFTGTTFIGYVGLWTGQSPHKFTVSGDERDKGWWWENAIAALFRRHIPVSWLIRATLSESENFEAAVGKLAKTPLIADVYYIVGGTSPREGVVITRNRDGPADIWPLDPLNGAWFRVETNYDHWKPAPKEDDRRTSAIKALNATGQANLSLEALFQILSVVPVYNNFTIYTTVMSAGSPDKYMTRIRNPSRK
Assay: ChEBML_1558887
Method: Inhibition of human NAAA expressed in HEK293 cells preincubated for 10 mins followed by N-(4-methyl-2-oxo-chromen-7-yl)-hexadecanamide substrate addition for 30 mins by microplate reader analysis

- IC50: 520 nM
Compound: COc1ccc(CCCCOC(=O)N[C@H]2CNC2=O)cc1
